Consider 1 compound from BindingDB's records for doi:10.1016/j.bmcl.2008.07.062 (The Scripps Research Institute, 2008).

pIC50: −log10 of the molar value.

Test [1] can be described thus: Inhibition of Blk expressed in mouse BAF3 cells assessed as cytotoxicity.
Test [2] in a line: Inhibition of JAK3 expressed in mouse BAF3 cells assessed as cytotoxicity.

As usually defined, the pIC50 is the IC50 on a negative log10 scale, so that one unit is a factor of ten. Consider `C=CC(=O)Nc1ccc2ncnc(Nc3cccc(Br)c3)c2c1`, for which the pIC50 in test [1] and in test [2] was under 5.00 each time.
